Results on one substance are retold here after patent US6143726A, “Complexes of N'-dimethylaminoacetylpartricin A dimethylaminoethylamide, or the salts thereof, and cholesterol 3-sulphate” (priority 1996, dated 2000).

Series [1] is described as follows: Pharmacokinetics test (i.v.): serum and kidney concentrations, microbiological determination. Format: in vivo, Sprague-Dawley rats. To be noted: 2 hours after single i.v. dose equivalent to 1.25 mg/kg. The protocol:
Two groups of 5 Sprague-Dawley male rats were treated by i.v. route with a single dose equivalent to 1.25 mg/kg of SPA-S-753-cholesterol sulphate complex and of not complexed SPA-S-753 for comparison, with a method similar to that described above. 2 hours following treatments the animals were killed, and the serum and kidneys were collected according to the ordinary procedures. The antibiotic was determined by the microbiological method on the pooled serums and organ homogenates from the 2 groups, the Saccharomyces cerevisiae growth inhibition zones being measured against those produced by antibiotic standard solutions (PYG-agar medium, incubation of 18 h at 30° C.). The antibiotic concentrations found were as follows: 2.6 μg/ml in serum and 4.0 μg/g in the case of SPA-S-753 alone, and 2.4 μg/ml in serum and 0.8 μg/g in the kidneys in the case of SPA-S-753-cholesterol sulphate complex.

For series [2] the following is noted: compared with partricin; cited from earlier work.
The conditions of series [3]: cited from earlier work.
Series [4] can be described thus: Precipitation at the site of injection after intramuscular administration and tolerance. Format: in vivo.
The nature of series [5]: Acute toxicity test (i.v. administration in mice), LD50 by Probit method. Format: in vivo. To be noted: i.v. into tail vein, male mice, 15 days observation. The protocol:
Groups of 5 […] male mice, of 4 weeks of age and weighing 14-18 g, starved overnight before trial, were treated with serial doses of the SPA-S-753-cholesterol sulphate complex (prepared as described in Example 1) and with the not complexed SPA-S-753 for comparison. The two products, dissolved in 5% glucose solution and diluted to the required concentrations, were injected by i.v. route into a tail vein, at a constant volume of 2 ml/kg and over the time of 30-40 seconds. The animals were then kept under observation for 15 days, while changes in behaviour and mortality were recorded.

In the case of “N'-dimethylaminoacetylpartricin A dimethylaminoethylamide diaspartate [SPA-S-753]”, in series [1] (organ homogenates), the “antibiotic concentration in kidneys” value was 4.0 µg/g. In addition, the “antibiotic concentration in serum” value in series [1] (pooled serum) came out at 2.6 µg/mL. In addition, the toxicity entry in series [2] is given as “definitely much lower than that of partricin”. In addition, in series [3], the water-solubility entry is “high water-solubility”. Further, the “precipitation on intramuscular administration” value in series [4] is “partial precipitation”. Also, the tolerance result in series [4] (systemic and local, versus uncomplexed SPA-S-753) is given as “negative influence on tolerance of the product”. Besides, in series [5], the “acute toxicity index, lethal dose in 50% of the animals (LD50)” value was in the range of 46 to 64 mg/kg.
